Experimental findings from patent US8613927B2, “High affinity human antibodies to human nerve growth factor” (Regeneron Pharmaceuticals, Inc., priority 2007, dated 2013) are described below.

The subject of one assay is C57BL/6 mice. Description: Post-operative incision pain model, mechanical allodynia in von Frey test. In kind it is in vivo, mouse. To be noted: Table 17. As for the experimental part:
Thermal hyperalgesia was studied in the Hargreaves' test and mechanical allodynia was tested in the von Frey test. In this latter test, mice were tested after being acclimated for 2-3 hours for 4 days in an apparatus with a wire mesh floor. The test was performed by applying, in ascending order, a series of von Frey hairs through the wire mesh onto the plantar surface of the hind paw with the incision. A response was considered positive if the paw was raised from the platform in response to application of the filament. Starting from the thinnest hair, each von Frey filament was applied up to five times until a response was observed.

Assay [1] concerns circulating levels of neurotrophin-3 (NT-3). Nature of the assay: Serum NT-3 sandwich ELISA, mice of post incision pain model. In kind it is in vivo, mouse. To be noted: day 4, 25 mg/kg i.p., mean±std dev, limit of detection ~40 pg/ml. From the text:
On day 4, after the behavioral tests from post incision pain model were completed, the mice's sera were collected and analyzed for circulating levels of neurotrophin-3 (NT-3) using a sandwich ELISA. The limit of detection (˜40 pg/ml) was defined as two standard deviations (2σ) above background with a minimum of five NT-3 standards to define the response to concentration curve.
Background: ELISA stands for enzyme-linked immunosorbent assay.

A further assay deals with C57BL/6 male mice. Description: Seltzer model of neuropathic pain, Hargreaves' test. In kind it is in vivo, mouse. From the text:
Neuropathic pain. The mouse Seltzer model of neuropathic pain (Malmberg et al. (1998) Pain 76:215-222) was used with C57BL/6 male mice, in which a partial nerve injury was produced by tying a tight ligature with a 7-0 silk suture around approximately ⅓ to ½ the diameter of the sciatic nerve of one single thigh per mouse. Post-surgery, the mice were allowed to recover for at least two days and then they were studied for several weeks post-surgery for thermal hyperalgesia in the Hargreaves' test. Controls were sham-operated mice in which the sciatic nerve was exposed and elevated but not tied. Following surgery, the mice were tested at day […] and at day 7 post-surgery to confirm that the thermal hyperalgesia had developed.
Following the Seltzer surgery, mice were tested at days 5 and 7 post-surgery to confirm that the thermal hyperalgesia had developed.

In assay [2] the target is Human NGF binding to human TrkA-hFc (Homo sapiens, UniProt P01138, DEL136-138/DEL208-209). Nature of the assay: BIACORE receptor blocking assay, free NGF bound to TrkA-hFc. Conditions: percentage free NGF bound; NGF 10-25 nM with molar excess of antibody; NGF alone = 100%. The text has this: (§1) To identify blocking antibodies, a receptor blocking assay was designed using a BIACORE™ 3000 instrument. Recombinant human TrkA-hFc and human p75-hFc proteins were amine-coupled to a CM5 chip to a density of about 5000-6000 RU.
Sequence of Human NGF binding to human TrkA-hFc (P01138 with tags, fused parts or gaps DEL136-138/DEL208-209): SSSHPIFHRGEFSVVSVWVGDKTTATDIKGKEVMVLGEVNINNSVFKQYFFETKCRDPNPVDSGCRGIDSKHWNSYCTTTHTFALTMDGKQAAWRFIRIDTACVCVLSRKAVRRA

Assay [3] concerns the target Human NGF binding to human p75-hFc (Homo sapiens, UniProt P01138, DEL136-138/DEL208-209). Description: BIACORE receptor blocking assay, free NGF bound to p75-hFc. To be noted: percentage free NGF bound; NGF 10-25 nM with molar excess of antibody; NGF alone = 100%.
Source text: as §1
A general note: In SPR one partner is held on a chip, and binding of the other changes the refractive index at the surface.

Sequence of Human NGF binding to human p75-hFc (P01138 with tags, fused parts or gaps DEL136-138/DEL208-209): as above

Regarding “REGN475: HCVR/LCVR SEQ ID NO:108/110 and mutant hIgG4 SEQ ID NO:543”, the “Paw Withdrawal Threshold” value in the assay on C57BL/6 mice (25 mg/kg i.p. on day 1 post-surgery, Baseline) is 1.286 ± 0.074 g; with C57BL/6 mice (25 mg/kg i.p., 5 hr after treatment), 0.034 ± 0.009 g; in the assay with C57BL/6 mice (25 mg/kg i.p., 22 hr after treatment), 0.714 ± 0.074 g; in the assay with C57BL/6 mice (25 mg/kg i.p., 45 hr after treatment), 1.086 ± 0.184 g; with C57BL/6 mice (25 mg/kg i.p., 70 hr after treatment), 1.571 ± 0.437 g; in the assay on C57BL/6 mice (25 mg/kg i.p., Day 1 (post-surgery, before injection)) it was 0.010 ± 0.002 g. For the same molecule, in assay [1], the “Serum NT-3” value was “not detected”. Moreover, the pain relief entry in the assay with C57BL/6 male mice (50 mg/kg s.c. or i.p. at day 7 post-surgery, p<0.001-0.05) was “Significant pain relief was observed”. For the same molecule, the “mean percent change from Hargreaves baseline” value (“mean percent change” for short) in the assay with C57BL/6 male mice (Table 25, 50 mg/kg s.c. at day 7, day 5 after surgery) is −55.2 ± 3.5%; in the assay on C57BL/6 male mice (Table 25, 50 mg/kg s.c. at day 7, day 7) it was −50.9 ± 4.3%; in the assay on C57BL/6 male mice (Table 25, 50 mg/kg s.c. at day 7, day 8), 10.3 ± 14.1%; with C57BL/6 male mice (Table 25, 50 mg/kg s.c. at day 7, day 9) it was 8.2 ± 7.2%; in the assay on C57BL/6 male mice (Table 25, 50 mg/kg s.c. at day 7, day 12) it was −20.1 ± 4.3%; in the assay on C57BL/6 male mice (Table 25, 50 mg/kg s.c. at day 7, day 15), −14.1 ± 6.1%. In addition, the “mean percent change” value is listed as 3.0 ± 10.9% in the assay with C57BL/6 male mice (Table 25, 50 mg/kg s.c. at day 7, day 19); −13.7 ± 13.4% in the assay on C57BL/6 male mice (Table 25, 50 mg/kg s.c. at day 7, day 22); 0.0 ± 0.0% with C57BL/6 male mice (Table 25, 50 mg/kg s.c. at day 7 post-surgery, Baseline); −58.7 ± 2.3% in the assay with C57BL/6 male mice (Table 26, 50 mg/kg i.p. at day 7, day 5 after surgery); −61.7 ± 2.7% in the assay on C57BL/6 male mice (Table 26, 50 mg/kg i.p. at day 7, day 7); −8.2 ± 16.1% with C57BL/6 male mice (Table 26, 50 mg/kg i.p. at day 7, day 8). Moreover, the “mean percent change” value is −7.9 ± 9.6% in the assay with C57BL/6 male mice (Table 26, 50 mg/kg i.p. at day 7, day 9); −0.1 ± 22.8% with C57BL/6 male mice (Table 26, 50 mg/kg i.p. at day 7, day 12); −10.8 ± 18.0% with C57BL/6 male mice (Table 26, 50 mg/kg i.p. at day 7, day 15); 0.0 ± 0.0% in the assay on C57BL/6 male mice (Table 26, 50 mg/kg i.p. at day 7 post-surgery, Baseline).

B1: TrkA-hFc: soluble receptorbody: extracellular domain of human TrkA fused with Fc portion of human IgG1 (protein)
chain: AAPCPDACCPHGSSGLRCTRDGALDSLHHLPGAENLTELYIENQQHLQHLELRDLRGLGELRNLTIVKSGLRFVAPDAFHFTPRLSRLNLSFNALESLSWKTVQGLSLQELVLSGNPLHCSCALRWLQRWEEEGLGGVPEQKLQCHGQGPLAHMPNASCGVPTLKVQVPNASVDVGDDVLLRCQVEGRGLEQAGWILTELEQSATVMKSGGLPSLGLTLANVTSDLNRKNVTCWAENDVGRAEVSVQVNVSFPASVQLHTAVEMHHWCIPFSVDGQPAPSLRWLFNGSVLNETSFIFTEFLEPAANETVRHGCLRLNQPTHVNNGNYTLLAANPFGQASASIMAAFMDNPFEFNPEDPIPVSFSPVDTNSTSGDPVEKKDETPFGVSVAVG
modifications: left off: a dimerising Fc or GST
notes: soluble receptorbody: extracellular domain of human TrkA fused with Fc portion of human IgG1
Take B1: the “% Binding TrkA-hFc” value in assay [2] came out at 10%. Also, in assay [3], the “% Binding p75-hFc” value is given as 15%.

B2: p75-hFc: soluble receptorbody: extracellular domain of human p75 fused with Fc portion of human IgG1 (protein)
chain: KEACPTGLYTHSGECCKACNLGEGVAQPCGANQTVCEPCLDSVTFSDVVSATEPCKPCTECVGLQSMSAPCVEADDAVCRCAYGYYQDETTGRCEACRVCEAGSGLVFSCQDKQNTVCEECPDGTYSDEANHVDPCLPCTVCEDTERQLRECTRWADAECEEIPGRWITRSTPPEGSDSTAPSTQEPEAPPEQDLIASTVAGVVTTVMGSSQPVVTRGTTDN
modifications: left off: a dimerising Fc or GST
notes: soluble receptorbody: extracellular domain of human p75 fused with Fc portion of human IgG1
For B2, the “% Binding TrkA-hFc” value in assay [2] was determined as 3%. The “% Binding p75-hFc” value in assay [3] is reported as 5%.
